In patent US11643439B2, “Multi-target compound with anticoagulation and antiplatelet activity, preparation method therefor, and use thereof” (SHAANXI MICOT TECHNOLOGY LIMITED COMPANY, priority 2015, dated 2023):
Marks after values point to notes of the source that are not given here.

Assays:
[1] = system: blood coagulation function; assay: PT in rabbits, single intravenous administration; type: in vivo, rabbit
Method: (§1) 1. Grouping and administration: 48 Rabbits were randomly divided into 6 groups, 8 rabbits per group. 1) Sham operation group (NS): Intravenous injection of the same volume of physiological saline; 2) positive control bivalirudin group (6 mg/kg); 3) positive control enoxaparin group (200 U/kg); 4) Low dose group of polypeptide 2 (3.0 mg/kg); 5) Medium dose group of polypeptide 2 (6.0 mg/kg); 6) High dose group of polypeptide 2 (12.0 mg/kg). Polypeptide 2 was administered by single intravenous administration. According to the body weight in kilograms of the rabbits, the sample was dissolved in 2 mL of physiological saline for single bolus injection. The sham operation group was administered with the same volume of physiological saline.
3.2 Determination of blood coagulation function: Blood samples were taken and the blood function (PT, TT, APTT) was determined at 0 min before administration, at points of 5 min and 15 min after administration, using a platelet-aggregation coagulation factor analyzer. Blood samples were centrifuged at 3510 rpm for 8 min to obtain platelet poor plasma (PPP). Reagent reconstruction and preservation were performed according to the operation requirements of the kit. Immediately after each blood sample was placed into a test cup and then added with PT. TT and APTT reagents, the test was started. After the test was completed, results were recorded.

[2] = system: FeCl3-induced common carotid arterial thrombosis; assay: FeCl3-induced common carotid arterial thrombosis in rats; type: in vivo, rat
Method: 160 Rats were randomly divided into groups, 5 to 10 rats per group.
According to the body weight in kilograms of the rats, the first dose of a drug was dissolved in 2 mL of physiological saline for single bolus injection. The maintaining dose of drug was dissolved in 9 ml of physiological saline, and placed in a double-channel micro-injection pump, which was dripped off within 90 minutes at a dripping speed of 0.1 ml/min. The sham operation group was administered with the same volume of physiological saline.
The rats were fasted with free access to water overnight before the experiment.
After administration at a load dosage maintenance for 30 minutes, a filter paper with a 3 mm diameter and immersed with 35% FeCl3 solution was applied below the common carotid artery, below which a small piece of a plastic film (2.5 cm×2.0 cm) was placed to protect surrounding tissues. The body temperature was detected with a temperature probe in the distal end of the artery, and the time required from the beginning of stimulation to the point when the temperature decreased by 2.5 degrees was examined as the vascular occlusion time.
The time from the point when FeCl3 was placed to the point when the temperature of the artery indicated a decrease of 2.5° C. was the vascular occlusion time, which reflected the state of thrombus formation.

[3] = system: thrombin-induced pulmonary embolism; assay: Thrombin-induced pulmonary embolism in mice; type: in vivo, mouse; conditions: thrombin 1500 u/kg; for Mortality rate: within 15 min
Method: Mice were randomly divided into 7 groups with 10 mice per group, in which group 1 was physiological saline group, group 2 was model control group, group 3 was positive control group of enoxaparin 0.5 mg/kg, group 4 was positive control group of bivalirudin 8 mg/kg, group 5 was low dose group of polypeptide 2 at 2.5 mg/kg, group 6 was medium dose group of polypeptide 2 at 5.0 mg/kg, and group 7 was high dose group of polypeptide 2 at 10.0 mg/kg. Except that physiological saline group and model control group were subjected to tail intravenous injection of 200 μl physiological saline, the other groups were given according to the doses, respectively. After 2 min, the mice in physiological saline group were administered with 100 μl physiological saline through tail intravenous injection and the other groups were each administered with 100 μl thrombin based on 1500 u/kg (80% to 90% of the lethal dose) through tail intravenous injection. The mice were observed after the administration for their death within 15 min.
(1) Recording mortality rate: the death status of mice with acute pulmonary embolism mice within 15 min was recorded and the survival time was recorded, to calculate the mortality rate;
(2) Determining lung coefficient: immediately after death, the bronchial and adipose tissues were dissected away from the lung tissue, and the lung tissue was washed with distilled water, and weighed for the lung weight after soaking up the water on the surface of the lung with a filter paper. The lung was taken out and weighed, to calculate the lung coefficient. Lung coefficient=Lung weight/Body weight×100%;
The lung was immediately dissected and taken out and weighed to determine the lung coefficient.

platelet aggregation = assay: Platelet aggregation in rabbits, single intravenous administration; type: in vivo, rabbit
Method: as §1
3.1 Platelet aggregation rate: 2.7 ml of blood was taken from the femoral vein, rapidly injected into a centrifuge tube containing 0.3 ml of 3.8% sodium citrate solution, and fully mixed well. The resulted blood samples were centrifuged at 810 rpm (100 g) for 8 min to obtain PRP, which was taken out and centrifuged at 3500 rpm (1863 g) for 8 min to obtain PPP, which was used to determine platelet aggregation.
Blood samples were taken at a point before administration (0 min), and at points of administration for 5 min and 15 min, respectively, to determine the platelet aggregation rate, which was used to calculate the inhibitory rate of platelet aggregation with a calculation equation as follows: […]

[4] = single iv 3.0 mg/kg, Administration for 5 min
[5] = single iv 3.0 mg/kg, Administration for 15 min
[6] = single iv 6.0 mg/kg, Administration for 5 min
[7] = single iv 6.0 mg/kg, Administration for 15 min
[8] = single iv 12.0 mg/kg, Administration for 5 min
[9] = single iv 12.0 mg/kg, Administration for 15 min
[10] = iv 0.125 + 0.375 (mg/kg + mg/kg/h)
[11] = iv 0.25 + 0.75 (mg/kg + mg/kg/h)

Substance: D-Phe Pro Arg Pro Gly Gly Gly Gly Asn Gly Asp Phe Glu Glu Ile Pro Glu Glu Tyr Leu Glu Ala Ala Ala Lys Cys Har Gly Asp Trp Pro Cys [Polypeptide 2]
- PT fold of prolongation ([1]; single iv 3.0 mg/kg, Administration 5 min): 1.5 ± 0.4
- PT fold of prolongation ([1]; single iv 3.0 mg/kg, Administration 15 min): 1.2 ± 0.2
- PT [1, 4]: 8.9 ± 1.2 S
- PT [1, 5]: 7.0 ± 0.8 S
- PT ([1]; single iv 3.0 mg/kg, Before administration): 6.0 ± 0.3 S
- PT fold of prolongation ([1]; single iv 6.0 mg/kg, Administration 5 min): 2.0 ± 0.4
- PT fold of prolongation ([1]; single iv 6.0 mg/kg, Administration 15 min): 1.4 ± 0.3
- PT [1, 6]: 12.9 ± 1.1*^#¥ S
- PT [1, 7]: 8.9 ± 0.7 S
- PT ([1]; single iv 6.0 mg/kg, Before administration): 6.3 ± 0.2 S
- PT fold of prolongation ([1]; single iv 12.0 mg/kg, Administration 5 min): 3.0 ± 0.8
- PT fold of prolongation ([1]; single iv 12.0 mg/kg, Administration 15 min): 2.0 ± 0.6
- PT [1, 8]: 19.2 ± 1.1 *^¥& S
- PT [1, 9]: 12.5 ± 0.7 *^¥&@ S
- PT ([1]; single iv 12.0 mg/kg, Before administration): 6.5 ± 0.2 S
- Common carotid arterial thrombosis OT ([2]; iv 0.041 + 0.125 (mg/kg + mg/kg/h)): 20.20 ± 10.00 min
- Common carotid arterial thrombosis Fold of prolongation [2, 10]: 27.99
- Common carotid arterial thrombosis OT [2, 10]: 16.23 ± 6.76 min
- Common carotid arterial thrombosis Fold of prolongation [2, 11]: 36.85
- Common carotid arterial thrombosis OT [2, 11]: 14.23 ± 4.82 min
- Common carotid arterial thrombosis OT ([2]; iv 0.5 + 1.25 (mg/kg + mg/kg/h)): 9.25 ± 4.86 min
- Common carotid arterial thrombosis Fold of prolongation ([2]; iv 1 + 2.5 (mg/kg + mg/kg/h)): 56.03
- Common carotid arterial thrombosis OT ([2]; iv 1 + 2.5 (mg/kg + mg/kg/h)): 9.91 ± 6.20 min
- Common carotid arterial thrombosis OT ([2]; iv 1.5 + 3.75 (mg/kg + mg/kg/h)): 7.13 ± 3.46 min
- Lung coefficient ([3]; tail iv 2.5 mg/kg): 0.94 ± 0.16 g/100 g
- Number of platelets ([3]; tail iv 2.5 mg/kg): 165.33 ± 20.2 ×10^9
- Mortality rate ([3]; tail iv 2.5 mg/kg, 2.5 mg/kg): 60 ^ %
- Mortality rate ([3]; tail iv 2.5 mg/kg, listed as polypeptide 2, 2.5 mg/kg): 60%
- Lung coefficient ([3]; tail iv 5.0 mg/kg): 1.08 ± 0.27 g/100 g
- Number of platelets ([3]; tail iv 5.0 mg/kg): 207.83 ± 33.09 ×10^9
- Mortality rate ([3]; tail iv 5.0 mg/kg, 5 mg/kg): 30**^# %
- Mortality rate ([3]; tail iv 5.0 mg/kg, listed as polypeptide 2, 5 mg/kg): 30%
- Lung coefficient ([3]; tail iv 10.0 mg/kg): 0.83 ± 0.14 g/100 g
- Number of platelets ([3]; tail iv 10.0 mg/kg): 529.57 ± 104.28 ×10^9
- Mortality rate ([3]; tail iv 10.0 mg/kg, 10 mg/kg): 10**^# %
- Mortality rate ([3]; tail iv 10.0 mg/kg, listed as polypeptide 2, 10 mg/kg): 10%
- inhibitory rate of platelet aggregation (platelet aggregation; [4]): 17.2 ± 6.7%
- inhibitory rate of platelet aggregation (platelet aggregation; [5]): 6.3 ± 7.0%
- inhibitory rate of platelet aggregation (platelet aggregation; [6]): 47.5 ± 5.8*^#¥& %
- inhibitory rate of platelet aggregation (platelet aggregation; [7]): 15.4 ± 6.0%
- inhibitory rate of platelet aggregation (platelet aggregation; [8]): 72.5 ± 6.2*#^¥&@ %
- inhibitory rate of platelet aggregation (platelet aggregation; [9]): 46.0 ± 6.5*^#¥&@ %
